Source: publication PMC12260939, “Radiosynthesis and Evaluation of ^11C‑Labeled Imidazolyl Pyrimidine Derivatives for Positron Emission Tomography Imaging of Glycogen Synthase Kinase‑3” (ACS Pharmacology & Translational Science, 2025)
Values after ≈ are worked out from the molar mass of the structure shown.

Tests used:
[1] = molecular target: human recombinant GSK3β (Homo sapiens, UniProt P49841); assay: GSK3β scintillation proximity assay (SPA), inhibition of kinase activity; assay type: biochemical
Experimental: The inhibition of GSK3β activity is assessed using a scintillation proximity assay (SPA) in a 96-well microtiter plate format. The assay utilizes purified human recombinant GSK3β enzyme (∼1 nM active), [γ-^33P]-ATP (0.04 μCi), and a biotinylated peptide substrate (Biotin-[…](PO3H2)-PQL) at a final concentration of 2 μM. Reactions are carried out in an assay buffer containing MOPS, EDTA, β-mercaptoethanol, Brij 35, glycerol, and BSA, and preincubated for 10–15 min at room temperature. Inhibitor testing is conducted in duplicate using 10 different concentrations. The kinase reaction is initiated by adding ATP (1 μM final) in the presence of 50 mM Mg(Ac)2. After a 15 min incubation at room temperature, the reaction is terminated by adding a solution (25 μL) containing 5 mM EDTA, 50 μM ATP, 0.1% Triton X-100, and 10 mg/mL streptavidin-coated SPA beads, followed by the addition of distilled water (50 μL). After a 6-h incubation, bound radioactivity is measured using a MicroBeta Trilux liquid scintillation counter (1450 MicroBeta Trilux, Wallac). Data are analyzed using nonlinear regression with variable slope (GraphPad Prism or Excel Fit), and results are reported as Ki values calculated via the Cheng-Prusoff equation.

[2] = molecular target: GSK-3; assay: Radioligand saturation binding assay with tritiated ligands in hippocampal membranes; parameters: species or system Sprague–Dawley rat; conditions: tritiated ligand, hippocampus of SD rat brains
Experimental: The pharmacology and physicochemical properties of compounds 13a–13e are depicted in Table . To evaluate binding affinities, saturation binding assays using tritiated ligands [^3H]13a, [^3H]13c, [^3H]13d, [^3H]13e (Scheme S1) were performed using the hippocampal tissue of Sprague–Dawley (SD) rat brains. As depicted in Table A, total binding (TB), nonspecific binding (NSB), and specific binding (SB) of the respective tritiated ligands were measured with increasing concentrations of the radioligands. The dissociation constant (Kd) and capacity (B max) of each radioligand were calculated to confirm their binding affinity.
For membrane preparation, hippocampal tissue from adult rats (Sprague–Dawley) was dissected out, weighed, and frozen in 0.32 M sucrose at −70 °C. On the experiment day, the tissue was thawed, homogenized in 50 mM Tris, 5 mM EDTA (pH 7.4) and then centrifuged at 48 000 xg for 15 min at +4 °C. The pellet was diluted in binding buffer (50 mM Tris, 4 mM MgCl2, 1 mM EDTA pH 7.4) to a final concentration of 2.5 mg w.w./mL. Saturation binding experiments were performed in duplicate, with each tube containing 1 mg w.w. in 0.5 mL binding buffer and 0.1 – 17 nM (11–12 concentrations) of radioligand. Nonspecific binding was measured by adding 10 μM AR-A014418. The assays were incubated for 2–3 h at room temperature and terminated by quick filtration using Whatman GF/B filters pretreated with 0.3% polyethylenimine on a Brandel cell harvester. Radioactivity was measured with a Packard Tri-Carb 2900TR liquid scintillation counter, and data were processed by nonlinear regression analyses using PRISM 4.03.

[3] = Apparent permeability (Papp A-B) and efflux ratio; assay type: in vitro ADME
Experimental: (§1) Multiparameter optimization (MPO) and brain/plasma concentration at steady-state (logBB) are widely used to predict BBB permeability. […] A detailed ADME/PK (absorption, distribution, metabolism, excretion and pharmacokinetics) profiling was conducted, and the results are listed in Table . […] These values meet the standards that BBB permeability is considered high if Papp A–B is ≥ 3.0 × 10^–6 cm/s and the efflux ratio is <3.0.

[4] = Unbound fraction in brain (fu brain); assay type: in vitro ADME
Experimental: as §1

[5] = Solubility; assay type: physicochemical; conditions: in dry DMSO at pH = 7.4
Experimental: as §1

[6] = Protein binding (% free); assay type: in vitro ADME; conditions: read-out: mean Prot binding (% free)
[7] = Intrinsic clearance (CLint); assay type: in vitro ADME; conditions: cells (cell type not named); read-out: median CLint
[8] = Pharmacokinetics: half-life and bioavailability; conditions: in vivo
[9] = molecular target: hERG channel (Homo sapiens, UniProt Q12809); assay: hERG channel inhibition
[10] = test system: GSK-3β; assay: In vitro autoradiography on rat brain tissue sections; assay type: binding; conditions: rat brain sections, baseline
Experimental: In the next step, we performed in vitro autoradiography studies on rat brain tissue sections to investigate the binding selectivity and distribution of compounds [^3H]13a–13e (Figure ). […] These findings support the potential of this compound series for further development as GSK-3β-targeted neuroimaging probes.
In vitro autoradiography was conducted on 10 μm thick cry-cut tissue sections of rat tissue that had been thaw-mounted onto microscope slides. The brain sections were incubated in 50 mM Tris-HCl buffer at room temperature and then incubated with [^3H]-ligand for 30 min. The sections were rinsed three times for 10 min each in Tris buffer at 1 °C, followed by a quick rinse in deionized water at 1 °C, and then air-dried at room temperature with a fan. The radiolabeled sections and Amersham plastic tritium standards were then exposed to phosphoimager plates (Fuji BAS-TR2040) overnight. Blocking studies were conducted using a 1000-fold excess of the cold reference compounds, and validated GSK-3β inhibitors AR-A014418 and SB-216763. […] This micromolar concentration is consistent with established methods for GSK-3 radioligand autoradiography blocking experiments.

[11] = test system: GSK-3; assay: NHP PET imaging of brain uptake; assay type: in vivo, cynomolgus monkeys; conditions: i.v. bolus, baseline
Excerpt: (§2) Then, we sought to assess the in vivo PET imaging performance characteristics of [^11C]13a–e in NHPs, and the results are presented in Figure . […] One potential contributor is metabolic instability of those tracers may reduce the amount of intact tracers to cross the BBB. Another important consideration is efflux by ATP-binding cassette (ABC) transporters, such as P-glycoprotein (P-gp) that is highly expressed at the BBB and can actively pump substrates out of the CNS. To investigate whether 13a–e are P-gp efflux substrates, a P-gp inhibition study was conducted. […] To enhance brain uptake in future analogs, various medicinal chemistry strategies could be employed, such as hydrogen bond donor/acceptor optimization, fine-tuning lipophilicity, steric shielding of efflux motifs, and bioisosteric replacements. A potential limitation of this study is the lack of blood sampling during the PET scans, which precluded assessment of [^11C]13e plasma concentrations following tariquidar pretreatment. […]
(§3) PET experiments were conducted on anesthetized healthy cynomolgus monkeys, following approval from the Stockholm Animal Research Ethical Committee (Dnr. 4820/06–600). […] The monkeys’ heads were stabilized with a fixation device, and body temperature was regulated with a Bair Hugger model 505 (Arizant Healthcare, MN, USA) and continuously monitored using an esophageal thermometer. […]

[12] = test system: P-glycoprotein (P-gp); assay: P-gp inhibition PET study (tariquidar pretreatment) in NHP; assay type: in vivo, cynomolgus monkeys
Excerpt: as §2, §3

Sequence of human recombinant GSK3β (P49841 whole entry): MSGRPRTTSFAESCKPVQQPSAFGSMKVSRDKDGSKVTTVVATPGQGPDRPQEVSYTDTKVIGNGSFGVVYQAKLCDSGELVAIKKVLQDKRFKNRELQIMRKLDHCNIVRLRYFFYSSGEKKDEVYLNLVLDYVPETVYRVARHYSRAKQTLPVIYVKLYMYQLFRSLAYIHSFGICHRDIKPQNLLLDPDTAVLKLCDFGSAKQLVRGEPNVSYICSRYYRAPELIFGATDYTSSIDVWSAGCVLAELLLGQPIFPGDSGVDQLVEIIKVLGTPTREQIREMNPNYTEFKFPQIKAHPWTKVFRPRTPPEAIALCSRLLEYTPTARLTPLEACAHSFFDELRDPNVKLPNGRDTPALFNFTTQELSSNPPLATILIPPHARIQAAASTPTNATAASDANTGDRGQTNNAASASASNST
Sequence of hERG channel (Q12809 whole entry): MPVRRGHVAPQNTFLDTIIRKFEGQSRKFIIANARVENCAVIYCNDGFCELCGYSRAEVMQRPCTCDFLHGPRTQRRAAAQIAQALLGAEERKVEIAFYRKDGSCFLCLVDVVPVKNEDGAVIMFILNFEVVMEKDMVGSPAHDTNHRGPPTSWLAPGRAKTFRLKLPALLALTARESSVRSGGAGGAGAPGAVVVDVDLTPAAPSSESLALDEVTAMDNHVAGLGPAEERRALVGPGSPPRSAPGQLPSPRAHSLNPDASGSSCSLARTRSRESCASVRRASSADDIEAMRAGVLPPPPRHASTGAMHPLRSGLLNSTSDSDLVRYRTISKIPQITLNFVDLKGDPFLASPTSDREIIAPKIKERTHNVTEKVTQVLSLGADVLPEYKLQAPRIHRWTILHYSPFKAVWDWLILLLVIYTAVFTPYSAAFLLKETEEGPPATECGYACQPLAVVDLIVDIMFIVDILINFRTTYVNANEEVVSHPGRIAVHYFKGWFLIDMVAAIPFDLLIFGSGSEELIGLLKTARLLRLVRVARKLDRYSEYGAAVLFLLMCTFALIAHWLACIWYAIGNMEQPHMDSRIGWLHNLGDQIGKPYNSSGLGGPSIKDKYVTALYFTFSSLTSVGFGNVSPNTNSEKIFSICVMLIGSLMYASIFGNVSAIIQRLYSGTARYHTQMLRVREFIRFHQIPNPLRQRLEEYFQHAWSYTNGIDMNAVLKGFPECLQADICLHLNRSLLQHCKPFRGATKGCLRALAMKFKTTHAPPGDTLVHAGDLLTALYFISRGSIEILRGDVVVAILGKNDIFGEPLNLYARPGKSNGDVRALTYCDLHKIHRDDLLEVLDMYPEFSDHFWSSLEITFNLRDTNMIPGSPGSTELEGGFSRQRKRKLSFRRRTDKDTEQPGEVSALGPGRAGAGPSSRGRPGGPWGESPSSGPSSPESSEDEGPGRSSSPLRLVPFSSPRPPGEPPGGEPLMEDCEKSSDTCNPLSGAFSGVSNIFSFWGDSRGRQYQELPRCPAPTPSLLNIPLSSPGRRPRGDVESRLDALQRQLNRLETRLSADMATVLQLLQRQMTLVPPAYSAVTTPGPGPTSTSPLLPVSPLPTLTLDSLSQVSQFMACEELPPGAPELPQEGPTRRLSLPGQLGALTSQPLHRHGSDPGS

SMILES: CC(=O)N1CCN(Cc2ccc(Nc3ncc(F)c(-c4cnc(C)n4C4CCOCC4)n3)cc2)CC1 [13e]
- Ki ([1]; GSK-3β, calculated via the Cheng-Prusoff equation): 3.33 nM
- IC50 ([1]; SPA, 1 μM ATP): 4.44 nM
- Kd [2]: 2.94 nM
- P app A-B [3]: 12.7 × 10^–6 cm/s
- efflux ratio ([3]; not told, Papp B–A/Papp A–B): 1.4
- fraction unbound [4]: 0.12
- solubility [5]: 362 µM (≈ 179 µg/mL)
- fraction unbound [6]: 0.111
- hepatocyte CLint [7]: 12 µL/min/1e6 cells
- bioavailability [8]: 10.1%
- half-life ([8]; read-out: mean t 1/2 (converted)): 1.73 h
- IC50 [9]: 20500 nM
- regional binding in autoradiography ([10]; by brain region): high binding in the cortex and hippocampus, moderate uptake in the striatum and cerebellum, and relatively low binding in the thalamus
- radioactive accumulation / distribution in autoradiography ([10]; tritiated ligand): highest and most regionally distinct uptake
- brain uptake (PET) [11]: relatively higher signals in the brain
- P-gp substrate status ([12]; NHP PET): P-glycoprotein substrate
- brain uptake after P-gp inhibition ([12]; NHP, Tariquidar 6 mg/kg): significantly increased the brain uptake
